According to US12054498B2, “Heteroaromatic macrocyclic ether chemotherapeutic agents” (Nuvalent, Inc., priority 2020, dated 2024):

Tests used:
[1] = target: T1, Ba/F3 cells EML4-ALK wt (variant 1) (Homo sapiens, UniProt Q9UM73); experiment: Ba/F3 cell proliferation assay, EML4-ALK wt (variant 1); type: cell-based; conditions: 72 hours, CellTiter-Glo
T1 construct: echinoderm microtubule-associated protein-like 4 (EML4) gene and the ALK tyrosine kinase domain; host or cells: Ba/F3 (RIKEN), retroviral pMSCV-puro; the other entry of the earlier key: EML4 (Q9HC35, Echinoderm microtubule-associated protein-like 4)
T1 sequence (Q9UM73 with tags, fused parts or gaps): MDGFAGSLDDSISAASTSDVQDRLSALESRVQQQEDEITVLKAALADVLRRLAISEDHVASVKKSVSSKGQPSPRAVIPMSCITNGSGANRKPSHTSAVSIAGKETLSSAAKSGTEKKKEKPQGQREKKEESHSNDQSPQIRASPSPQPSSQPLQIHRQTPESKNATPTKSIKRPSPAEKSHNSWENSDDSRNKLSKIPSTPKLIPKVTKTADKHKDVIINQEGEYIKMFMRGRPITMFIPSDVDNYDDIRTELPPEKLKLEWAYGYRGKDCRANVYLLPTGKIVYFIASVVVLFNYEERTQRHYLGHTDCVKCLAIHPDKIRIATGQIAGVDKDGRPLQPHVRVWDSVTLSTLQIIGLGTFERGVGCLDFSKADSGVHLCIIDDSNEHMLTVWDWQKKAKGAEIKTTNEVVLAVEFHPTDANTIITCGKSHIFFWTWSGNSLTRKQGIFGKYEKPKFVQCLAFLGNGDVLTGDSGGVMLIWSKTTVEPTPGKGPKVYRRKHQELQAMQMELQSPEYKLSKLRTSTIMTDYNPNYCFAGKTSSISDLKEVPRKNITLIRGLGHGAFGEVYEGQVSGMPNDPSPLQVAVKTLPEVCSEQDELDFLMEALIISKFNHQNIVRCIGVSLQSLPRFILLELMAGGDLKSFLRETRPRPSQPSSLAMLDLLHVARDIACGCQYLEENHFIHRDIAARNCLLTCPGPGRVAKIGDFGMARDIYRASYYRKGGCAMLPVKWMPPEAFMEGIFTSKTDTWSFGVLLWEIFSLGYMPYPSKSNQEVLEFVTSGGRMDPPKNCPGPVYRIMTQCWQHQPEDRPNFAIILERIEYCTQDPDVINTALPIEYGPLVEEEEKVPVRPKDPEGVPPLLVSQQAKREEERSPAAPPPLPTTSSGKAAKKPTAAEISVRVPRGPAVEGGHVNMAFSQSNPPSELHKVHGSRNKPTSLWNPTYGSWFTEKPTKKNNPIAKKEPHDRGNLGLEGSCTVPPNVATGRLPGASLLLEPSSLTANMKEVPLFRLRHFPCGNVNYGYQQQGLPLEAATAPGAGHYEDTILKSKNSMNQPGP
Method in brief: (§1)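 IL-3-independent Ba/F3 lines stably expressing the fusion kinase (retroviral, puromycin-selected), 1,000 cells/well, treated with 3-fold compound dilutions for 72 h. Viability by CellTiter-Glo luminescence; IC50 from four-parameter logistic fit of percent inhibition.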

ALK-wt = target: T2, ALK-wt (Homo sapiens, UniProt Q9UM73); experiment: Biochemical kinase assay, ALK-wt kinase domain; conditions: apparent inhibitory constant, Morrison equation; ATP 2 mM in substrate solution; read-out: ALK-wt Ki^app
T2 construct: purchased Carna 08-518
T2 sequence (Q9UM73 1116-1392 limits assumed): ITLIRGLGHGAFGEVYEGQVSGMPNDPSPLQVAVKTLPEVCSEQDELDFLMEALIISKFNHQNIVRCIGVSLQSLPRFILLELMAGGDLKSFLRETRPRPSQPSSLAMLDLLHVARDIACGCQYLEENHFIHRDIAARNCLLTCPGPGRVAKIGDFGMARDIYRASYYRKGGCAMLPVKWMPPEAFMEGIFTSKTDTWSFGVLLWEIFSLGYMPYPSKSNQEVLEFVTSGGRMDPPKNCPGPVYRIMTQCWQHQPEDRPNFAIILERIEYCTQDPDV
Method in brief: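 Apparent Ki values come from fitting initial reaction rates against inhibitor concentration to the Morrison equation. Rates were taken from the linear phase of fluorogenic substrate phosphorylation (AQT0101 for ALK and ROS1, AQT0104 for TRKA; 26 μM in substrate solution with 2 mM ATP), monitored at 485 nm over 120 min at 30° C.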

ALK L1196M/G1202R = target: T3, ALK L1196M/G1202R (Homo sapiens, UniProt Q9UM73, G1202R/L1196M); experiment: Biochemical kinase assay, ALK L1196M/G1202R kinase domain; conditions: apparent inhibitory constant, Morrison equation; ATP 2 mM in substrate solution; read-out: ALK-L1196M-G1202R Ki^app
T3 construct: purchased SignalChem A19-12NG
T3 sequence (Q9UM73 1116-1392 L1196M/G1202R limits assumed): as the sequence (Q9UM73 1116-1392 limits assumed) above, with L81M, G87R counted along it
Method in brief: (§2)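 Kinase domains (in kinase solution: ROS1-G2032R 0.5 nM, ROS1-wt 0.6 nM, TRKA 1 nM, ALK L1196M/G1202R 3 nM) were mixed with compound and a substrate solution of 2 mM ATP plus 26 μM fluorogenic AQT0101 (ALK, ROS1) or AQT0104 (TRKA) in HEPES pH 7.5/MgCl2. Fluorescence was followed for 120 min at 30° C; Ki^app was obtained by Morrison fit of initial rates.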

Ba/F3 cells TPM3-TRKA = target: T4, Ba/F3 cells TPM3-TRKA (Homo sapiens, UniProt P04629); experiment: Ba/F3 cell proliferation assay, TPM3-TRKA; type: cell-based; conditions: 72 hours, CellTiter-Glo, read-out: TPM3-NTRK1-wt IC50
T4 construct: host or cells: Ba/F3 (RIKEN), retroviral pMSCV-puro; the other entry of the earlier key: TPM3 (P06753, Tropomyosin alpha-3 chain)
T4 sequence (P04629 510-796 limits assumed): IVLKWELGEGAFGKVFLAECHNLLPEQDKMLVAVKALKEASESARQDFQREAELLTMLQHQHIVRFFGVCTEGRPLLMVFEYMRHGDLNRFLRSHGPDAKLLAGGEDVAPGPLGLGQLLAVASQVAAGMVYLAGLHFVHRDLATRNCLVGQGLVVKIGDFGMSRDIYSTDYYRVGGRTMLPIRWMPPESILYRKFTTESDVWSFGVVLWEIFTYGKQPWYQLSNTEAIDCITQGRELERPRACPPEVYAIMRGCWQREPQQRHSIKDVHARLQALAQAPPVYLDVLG
Method in brief: as §1

[2] = target: T5, Ba/F3 cells CD74-ROS1 G2032R (Homo sapiens, UniProt P08922, G2032R); experiment: Ba/F3 cell proliferation assay, CD74-ROS1 G2032R; type: cell-based; conditions: 72 hours, CellTiter-Glo
T5 construct: fusion of the C-terminus of ROS1 with the N-terminus of various partner proteins; host or cells: Ba/F3 (RIKEN), retroviral pMSCV-puro; the other entry of the earlier key: CD74 (P04233, HLA class II histocompatibility antigen gamma chain)
T5 sequence (P08922 1883-2347 G2032R limits assumed): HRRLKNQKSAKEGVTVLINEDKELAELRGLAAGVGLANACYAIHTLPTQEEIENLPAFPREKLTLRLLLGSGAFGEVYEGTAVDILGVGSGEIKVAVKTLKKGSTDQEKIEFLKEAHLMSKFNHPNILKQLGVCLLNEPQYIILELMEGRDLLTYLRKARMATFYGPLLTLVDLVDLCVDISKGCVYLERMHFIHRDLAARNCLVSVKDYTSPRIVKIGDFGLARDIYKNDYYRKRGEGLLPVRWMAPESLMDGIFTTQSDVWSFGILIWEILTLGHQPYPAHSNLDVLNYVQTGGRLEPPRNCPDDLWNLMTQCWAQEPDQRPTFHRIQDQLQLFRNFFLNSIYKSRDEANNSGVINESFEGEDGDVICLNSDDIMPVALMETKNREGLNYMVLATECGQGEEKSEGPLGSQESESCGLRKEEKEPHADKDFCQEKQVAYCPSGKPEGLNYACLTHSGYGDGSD
Method in brief: (§3)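 IL-3-independent Ba/F3 CD74-ROS1 lines, puromycin-selected monoclones; 1,000 cells/well, plated 1 d before dosing; 3-fold serial dilutions, 72 h; CellTiter-Glo luminescence; IC50 by 4-parameter logistic regression.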

ROS1-G2032R = target: T6, ROS1-G2032R (Homo sapiens, UniProt P08922, G2032R); experiment: Biochemical kinase assay, ROS1-G2032R kinase domain; conditions: apparent inhibitory constant, Morrison equation; ATP 2 mM in substrate solution; read-out: ROS1-G2032R Ki^app
T6 construct: purchased SignalChem R14-12BG
T6 sequence (P08922 1945-2222 G2032R limits assumed): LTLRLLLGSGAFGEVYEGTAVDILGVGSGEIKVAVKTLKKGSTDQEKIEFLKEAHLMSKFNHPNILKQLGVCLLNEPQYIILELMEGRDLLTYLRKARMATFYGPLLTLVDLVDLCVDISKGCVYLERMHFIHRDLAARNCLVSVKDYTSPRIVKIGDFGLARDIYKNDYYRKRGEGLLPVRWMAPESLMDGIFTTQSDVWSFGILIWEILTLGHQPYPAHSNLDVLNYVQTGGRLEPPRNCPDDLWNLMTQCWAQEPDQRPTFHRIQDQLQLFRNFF
Method in brief: (§4)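 Compounds, as 100-fold DMSO stocks, were dispensed first, then substrate mix was added (ATP 2 mM, AQT0101 26 μM, in 50 mM HEPES pH 7.5/10 mM MgCl2). Reactions ran at 30 °C with fluorescence logged every 2 min over 120 min. Apparent inhibition constants came from fitting rates to Morrison's tight-binding equation.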

TRKA-wt = target: T7, TRKA-wt (Homo sapiens, UniProt P04629); experiment: Biochemical kinase assay, TRKA-wt kinase domain; conditions: apparent inhibitory constant, Morrison equation; ATP 2 mM in substrate solution; read-out: TRKA-wt Ki^app
T7 construct: or TRKA-wt (1 nM, BPS Bio, 40280) kinase domains in buffer; purchased BPS Bio 40280
T7 sequence (P04629 510-781 limits assumed): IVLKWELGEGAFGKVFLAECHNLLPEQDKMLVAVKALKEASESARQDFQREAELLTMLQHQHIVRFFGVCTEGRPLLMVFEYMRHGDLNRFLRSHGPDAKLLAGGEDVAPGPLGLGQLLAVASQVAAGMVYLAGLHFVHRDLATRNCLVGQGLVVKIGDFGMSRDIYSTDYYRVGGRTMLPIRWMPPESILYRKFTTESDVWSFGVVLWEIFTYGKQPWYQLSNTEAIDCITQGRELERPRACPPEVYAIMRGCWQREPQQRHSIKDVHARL
Method in brief: as §2

[3] = target: T8, Ba/F3 cells EML4-ALK L1196M/G1202R (variant 1) (Homo sapiens, UniProt Q9UM73, G1202R/L1196M); experiment: Ba/F3 cell proliferation assay, EML4-ALK L1196M/G1202R (variant 1); type: cell-based; conditions: 72 hours, CellTiter-Glo
T8 construct: echinoderm microtubule-associated protein-like 4 (EML4) gene and the ALK tyrosine kinase domain; host or cells: Ba/F3 (RIKEN), retroviral pMSCV-puro; the other entry of the earlier key: EML4 (Q9HC35, Echinoderm microtubule-associated protein-like 4)
T8 sequence (Q9UM73 with tags, fused parts or gaps L1196M/G1202R): as the sequence (Q9UM73 with tags, fused parts or gaps) above, with L635M, G641R counted along it
Method in brief: as §1

[4] = target: T9, Ba/F3 cells CD74-ROS1 wild-type (wt) (Homo sapiens, UniProt P08922); experiment: Ba/F3 cell proliferation assay, CD74-ROS1 wild-type; type: cell-based; conditions: 72 hours, CellTiter-Glo
T9 construct: fusion of the C-terminus of ROS1 with the N-terminus of various partner proteins; host or cells: Ba/F3 (RIKEN), retroviral pMSCV-puro; the other entry of the earlier key: CD74 (P04233, HLA class II histocompatibility antigen gamma chain)
T9 sequence (P08922 1883-2347 limits assumed): as the sequence (P08922 1883-2347 G2032R limits assumed) above, with R150G counted along it
Method in brief: as §3

ROS1-wt = target: T10, ROS1-wt (Homo sapiens, UniProt P08922); experiment: Biochemical kinase assay, ROS1-wt kinase domain; conditions: apparent inhibitory constant, Morrison equation; ATP 2 mM in substrate solution; read-out: ROS1-wt Ki^app
T10 construct: purchased Carna 08-163
T10 sequence (P08922 1945-2222 limits assumed): as the sequence (P08922 1945-2222 G2032R limits assumed) above, with R88G counted along it
Method in brief: as §4

[5] = system: TPM3-NTRK1-wt IC50 / primary target IC50 (e.g. CD74-ROS1-wt); experiment: TRKA selectivity in Ba/F3 cells (TRKA potency divided by primary target potency); type: cell-based; conditions: for TPM3-NTRK1-wt/CD74-ROS1-G2032R selectivity ratio: TRKA potency / CD74-ROS1-G2032R potency; for TPM3-NTRK1-wt/CD74-ROS1-wt selectivity ratio: TRKA potency / CD74-ROS1-wt potency; for TPM3-NTRK1-wt/EML4-ALK-L1196M-G1202R selectivity ratio: TRKA potency / EML4-ALK-L1196M-G1202R potency; for TPM3-NTRK1-wt/EML4-ALK-wt selectivity ratio: TRKA potency / EML4-ALK-wt potency
Procedure: TRKA selectivity was calculated by dividing a compound's TRKA potency by its primary target potency (e.g. TPM3-NTRK1-wt IC50/CD74-ROS1-wt IC50). Compound selectivity can be interpreted by binning ratio values: bin A for very high selectivity, ratio >30-fold; bin B for high selectivity, ratio >10-fold; bin C for moderate selectivity, ratio ≥1; and bin D for low selectivity, ratio <1. […] (nd=not determined).

SMILES | IC50 [1] [nM] | Ki (ALK-wt) [nM] | Ki (ALK L1196M/G1202R) [nM] | IC50 (Ba/F3 cells TPM3-TRKA) [nM] | IC50 [2] [nM] | Ki (ROS1-G2032R) [nM] | Ki (TRKA-wt) [nM] | IC50 [3] [nM] | IC50 [4] [nM] | Ki (ROS1-wt) [nM] | TPM3-NTRK1-wt/CD74-ROS1-G2032R selectivity ratio [5] | TPM3-NTRK1-wt/CD74-ROS1-wt selectivity ratio [5] | TPM3-NTRK1-wt/EML4-ALK-L1196M-G1202R selectivity ratio [5] | TPM3-NTRK1-wt/EML4-ALK-wt selectivity ratio [5]
Cc1nn(CC2CC2)c2c1Cc1nn(C)nc1-c1ccc(F)cc1COc1cc-2cnc1N [Example 71, 3-(cyclopropylmethyl)-16-fluoro-5,10-dimethyl-20-oxa-3,4,9,10,11,23-hexaazapentacyclo[19.3.1.0^2,^6.0^8,^12.0^13,^18]pentacosa-1(24),2(6),4,8,11,13,15,17,21(25),22-decaen-22-amine] | 50 to 500 | < 50 | < 50 | > 500 | 0.1 to 50 | 50 to 500 | > 500 | 50 to 500 | 0.1 to 50 | < 50 | A (bin A for very high selectivity, ratio >30-fold) | A (bin A for very high selectivity, ratio >30-fold) | B (bin B for high selectivity, ratio >10-fold) | A (bin A for very high selectivity, ratio >30-fold)
CCn1ncc2c1-c1cnc(N)c(c1)OC(C)c1cc(F)ccc1-c1cccnc1C2 (stereo not drawn) [Example 34, 3-ethyl-17-fluoro-20-methyl-21-oxa-3,4,9,24-tetraazapentacyclo[20.3.1.0^2,^6.0^8,^13.0^14,^19]hexacosa-1(25),2(6),4,8(13),9,11,14,16,18,22(26),23-undecaen-23-amine] | 0.1 to 50 | < 50 | < 50 | 50 to 500 | 0.1 to 50 | < 50 | 50 to 500 | 0.1 to 50 | 0.1 to 50 | < 50 | A (bin A for very high selectivity, ratio >30-fold) | A (bin A for very high selectivity, ratio >30-fold) | B (bin B for high selectivity, ratio >10-fold) | A (bin A for very high selectivity, ratio >30-fold)
CCn1ncc2c1-c1cnc(N)c(c1)O[C@H](C)c1cc(F)ccc1-c1c(C#N)cnn1C2 [Example 3, (19R)-22-amino-3-ethyl-16-fluoro-19-methyl-20-oxa-3,4,8,9,23-pentaazapentacyclo[19.3.1.0^2,^6.08,^12.0^13,^18]pentacosa-1(24),2(6),4,9,11,13,15,17,21(25),22-decaene-11 carbonitrile] | 0.1 to 50 | < 50 | < 50 | > 500 | 0.1 to 50 | < 50 | 50 to 500 | 50 to 500 | 0.1 to 50 | < 50 | A (bin A for very high selectivity, ratio >30-fold) | A (bin A for very high selectivity, ratio >30-fold) | C (bin C for moderate selectivity, ratio ≥1) | A (bin A for very high selectivity, ratio >30-fold)
C[C@H]1Oc2cc(cnc2N)-c2c(cnn2CC2CC2)Cc2nn(C)nc2-c2ccc(F)cc21 [Example 69, (19R)-3-(cyclopropylmethyl)-16-fluoro-10,19-dimethyl-20-oxa-3,4,9,10,11,23-hexaazapentacyclo[19.3.1.0^2,^6.0^8,^12.0^13,^18]pentacosa-1(24),2(6),4,8,11,13,15,17,21(25),22-decaen-22-amine] | 0.1 to 50 | < 50 | < 50 | > 500 | 0.1 to 50 | < 50 | > 500 | 0.1 to 50 | 0.1 to 50 | < 50 | A (bin A for very high selectivity, ratio >30-fold) | A (bin A for very high selectivity, ratio >30-fold) | A (bin A for very high selectivity, ratio >30-fold) | A (bin A for very high selectivity, ratio >30-fold)
Cc1cc2n(n1)Cc1cnn(CCF)c1-c1cnc(N)c(c1)O[C@H](C)c1cc(F)ccc1-2 [Example 92, (19R)-16-fluoro-3-(2-fluoroethyl)-10,19-dimethyl-20-oxa-3,4,8,9,23-pentaazapentacyclo[19.3.1.0^2,^6.0^8,^12.0^13,^18]pentacosa-1(24),2(6),4,9,11,13,15,17,21(25),22-decaen-22-amine] | 0.1 to 50 | < 50 | < 50 | 50 to 500 | 0.1 to 50 | < 50 | > 500 | 50 to 500 | 0.1 to 50 | < 50 | A (bin A for very high selectivity, ratio >30-fold) | A (bin A for very high selectivity, ratio >30-fold) | C (bin C for moderate selectivity, ratio ≥1) | B (bin B for high selectivity, ratio >10-fold)
C[C@H]1Oc2cc(cnc2N)-c2c(cnn2CC2CC2)Cc2ncc(F)cc2-c2ccc(F)cc21 [Example 72, (20R)-3-(cyclopropylmethyl)-11,17-difluoro-20-methyl-21-oxa-3,4,9,24-tetraazapentacyclo[20.3.1.0^2,^6.0^8,^13.0^14,^19]hexacosa-1(25),2(6),4,8(13),9,11,14,16,18,22(26),23-undecaen-23-amine] | 0.1 to 50 | < 50 | < 50 | 50 to 500 | 0.1 to 50 | < 50 | 50 to 500 | 0.1 to 50 | 0.1 to 50 | < 50 | A (bin A for very high selectivity, ratio >30-fold) | A (bin A for very high selectivity, ratio >30-fold) | A (bin A for very high selectivity, ratio >30-fold) | A (bin A for very high selectivity, ratio >30-fold)
